Source: patent publication US20260008776A1 (HANGZHOU POLYMED BIOPHARMACEUTICALS, INC., priority 2023, published 2026)
Like-named read-outs stand apart in the source and are kept apart here.

Experiments:
[1] = Pharmacokinetic test in rats, oral gavage; assay type: in vivo, Sprague-Dawley rats
Procedure: (§1) Subsequently, 976 μL of Tween 80 was added and vortexed for 30 seconds, followed by the addition of 488 μL of Kolliphor HS15 (Kolliphor HS15 was used after heating and melting at 50° C.) and vortexed for 30 seconds. Finally, 7808 L of saline was added and vortexed for 30 seconds, followed by ultrasonication for 10 seconds to remove bubbles. The resulting administration preparation was a suspension.
as §1, with “1034” for “976”, “517” for “488”, “8270 μL” for “7808 L”
Species and Strain: Sprague-Dawley rats (SD rats) (Zhejiang Vital River Laboratory Animal Technology Co., Ltd.) • Animal Grade: SPF level
Planned initial body weight for administration: Male 200-250 g. Actual animal weights will be listed in the raw records. • Number and Gender of Animals: 3 (3 per group), male
Based on measured body weights, animals with similar weights were divided into groups of 3 animals each. Blank group animals were used for the collection of blank biological matrices.
• Administration route: Oral gavage • Administration volume: 10 mL/kg • Administration frequency: Single dose • Administration method: The test sample was administered orally via gavage using an appropriate syringe and gavage tube. When using a 2 mL or 5 mL syringe, the administration volume was recorded to one decimal place. When the minimum graduation value of the syringe was 0.2 mL and the administration volume was between two graduation marks, the higher volume was selected for administration.
Sample collection: Approximately 0.30 mL of whole blood was collected from the orbital vein of Group 1 animals at each time point.
The experimental animals were fasted for 12 hours before administration, with free access to water. Blood samples were collected from Group 1 animals (oral gavage group) at 5 min, 15 min, 30 min, 1 h, 2 h, 4 h, 6 h, 8 h, and 24 h after administration.
Sample processing: The collected venous blood was immediately transferred to EDTA-Na2-coated EP tubes (stored in a refrigerator or in an ice box with crushed ice at 2-8° C. prior to use), inverted at least 5 times for thorough mixing, and temporarily stored in an ice box with crushed ice. The collected whole blood was centrifuged at 2000 g for 10 min under 2-8° C. conditions within 2 h to separate plasma, which was then placed in newly labeled centrifuge tubes and stored at −20° C.
The pharmacokinetics group of the Department of Pharmacology and Toxicology conducted the analysis and measurement of all samples, followed by data summarization. Plasma concentration data were analyzed using the pharmacokinetic data analysis software WinNonlin. Non-compartmental analysis (NCA) was employed to calculate pharmacokinetic parameters such as t1/2, Cmax, Tmax, Vd, CL, AUC0-24, and F. The detailed results are shown in the following table: […]

MV4-11 cells = experiment: Killing activity against MV4-11 cells (CellTiter-Glo, CTG); assay type: cell-based; details: Homo sapiens, 72 hours incubation, read-out: IC50 of cell killing activity against MV4-11
From the text: Reagent and consumable information is as follows: • MV4-11 Cells (ATCC, Cat. No. CRL-9591) • DPBS (Dulbecco's Phosphate Buffered Saline, Biosera, Cat. No. LM-S2041/500) • IMDM Medium (Thermo, Cat. No. 12440053) • Fetal Bovine Serum (Biological, Cat. No. 04-002-1A) • Penicillin-Streptomycin Solution (Invitrogen, Cat. No. 15140122) • Dimethyl Sulfoxide (Sigma, Cat. No. D2650) • CellTiter-Glo Luminescent Cell Viability Assay (Promega, Cat. No. G7573) • 96-Well Plate (Corning, Cat. No. 3903)
1. MV-4-11 cells were cultured in a complete IMDM medium (IMDM+10% fetal bovine serum+1% Penicillin-Streptomycin, a mixture of penicillin and streptomycin).
2. MV-4-11 cells with good cell status were collected and washed twice with DPBS (Dulbecco's phosphate buffered saline).
3. MV-4-11 cells were resuspended in a complete IMDM medium, adjusted to a cell density of 1.11×10^6 cells/mL, and 90 μL of the mixture was added to each well of a 96-well plate.
4. A 10-fold concentration of the compound solution was prepared in a complete IMDM medium, and 10 μL of the 10-fold concentration of the compound solution was added to each well of the 96-well plate. After mixing well, the 96-well plate was incubated in a 37° C., 5% CO2 incubator for 72 hours.
5. […]
6. The 96-well plate was removed and equilibrated at room temperature for 10 minutes, and then the chemiluminescence value was measured using a microplate reader.

[2] = Hygroscopicity study of crystal form A by dynamic vapor sorption (DVS); assay type: physicochemical; details: for Desorption (%) / Sorption (%): DVS
Procedure: The important hygroscopicity of this compound was tested using a dynamic vapor sorption (DVS) instrument. DVS is a dynamic measurement method, so during the measurement process, the sample will undergo a change in mass. Like other types of research methods, DVS records the change in mass of the sample as the relative humidity changes.

[3] = High-pressure property test; assay type: physicochemical; details: hydraulic pressure 10 tons, 5 minutes
From the text: The resulting solid was characterized by XRPD and other methods to evaluate its crystal form stability under high-pressure conditions.

[4] = Crystal form transformation, suspension competition experiments; assay type: physicochemical; details: C, D, E, RT; for XRPD of solid after suspension competition: crystal forms A, G together (20 mg each), EtOH/H2O 1/1 (v/v); for XRPD: suspension competition of crystal forms A, G (20 mg each), DMSO/EtOH 1/8 (v/v) saturated solution 15 V
Procedure: In order to study the transformation relationship between various crystal forms and prepare various crystal forms under repeated conditions, a series of suspension competition experiments were carried out on crystal forms A, C, D, E, and G in different solvent systems. The specific experimental steps are as follows:
20 mg of each of crystal forms A, C, D, E, and G were weighed into 5 mL glass vials, and solvents (EtOH/H2O=1/1 (v/v) or DMSO (dimethyl sulfoxide)/EtOH=1/8 (v/v)) were added to form suspensions. The vials were then transferred to 25° C. and stirred for 72 hours. At various time points, the filter cakes were tested by XRPD.

[5] = Solid-state stability study, influencing factor test of crystal form A; assay type: physicochemical
Procedure: The glass dish or glass vial was then subjected to different environments in a constant temperature and humidity chamber. The conditions include: illumination: 4500±500 Lux; high temperature: 60° C. (sealed); and high humidity: 25° C. with relative humidity RH=90±5% (open).

[6] = Simulated granulation test (dry and wet grinding); assay type: physicochemical; details: dry grinding 30 minutes; wet grinding with ethanol 30 minutes
From the text: The purpose was to determine whether polymorphs, solvates, or amorphous forms were readily generated.

[7] = rats, PO, 40 mpk, single dose, plasma

CC(C)(O)CCn1cc2cc(NC(=O)c3coc(-c4ccnc(C(F)(F)F)c4)n3)c(C(C)(C)O)cc2n1 [formula I]
AUC(0-t) ([1]; male, Sprague-Dawley, rat, 40 mg/kg, rats, PO, 40 mpk, single dose, plasma, read-out: AUC0-24): 4880 ng·h/mL
Cmax ([1]; male, Sprague-Dawley, rat, 40 mg/kg, rats, PO, 40 mpk, single dose, plasma, read-out: Cmax): 934 ng/mL
IC50 (MV4-11 cells): 21 nM

CC(C)(O)CCn1cc2cc(NC(=O)c3coc(-c4ccnc(C(F)(F)F)c4)n3)c(C(C)(C)O)cc2n1.Cl [hydrochloride salt]
Plasma concentration and exposure compared with the free base ([1]; SD rats, single oral gavage, 4 mg/mL suspension, 10 mL/kg): significantly increase
AUC0-24 [1, 7]: 27508.69 ng·h/mL
Cmax [1, 7]: 5117.67 ng/mL

CC(C)(O)CCn1cc2cc(NC(=O)c3coc(-c4ccnc(C(F)(F)F)c4)n3)c(C(C)(C)O)cc2n1 [crystal form A]
Change in crystal form before and after DVS testing (XRPD) [2]: no change in crystal form
Hygroscopicity (DVS), in words ([2]; 25° C., up to 90 RH): low hygroscopicity
Moisture sorption (DVS) ([2]; 25° C./90 RH, two sorption-desorption curves): less than 0.0400
Desorption (%) ([2]; first cycle, 0% RH): −0.01%
Sorption (%) ([2]; first cycle, 0% RH): 0.00%
Desorption (%) ([2]; first cycle, 10% RH): 0.00%
Sorption (%) ([2]; first cycle, 10% RH): −0.01%
Desorption (%) ([2]; first cycle, 20% RH): 0.00%
Sorption (%) ([2]; first cycle, 20% RH): 0.00%
Desorption (%) ([2]; first cycle, 30% RH): 0.00%
Sorption (%) ([2]; first cycle, 30% RH): 0.00%
Desorption (%) ([2]; first cycle, 40% RH): 0.01%
Sorption (%) ([2]; first cycle, 40% RH): 0.00%
Desorption (%) ([2]; first cycle, 50% RH): 0.02%
Sorption (%) ([2]; first cycle, 50% RH): 0.01%
Desorption (%) ([2]; first cycle, 60% RH): 0.02%
Sorption (%) ([2]; first cycle, 60% RH): 0.01%
Desorption (%) ([2]; first cycle, 70% RH): 0.03%
Sorption (%) ([2]; first cycle, 70% RH): 0.02%
Desorption (%) ([2]; first cycle, 80% RH): 0.03%
Sorption (%) ([2]; first cycle, 80% RH): 0.03%
Desorption (%) ([2]; first cycle, 90% RH): 0.03%
Sorption (%) ([2]; first cycle, 90% RH): 0.03%
Desorption (%) ([2]; second cycle, 0% RH): −0.01%
Sorption (%) ([2]; second cycle, 0% RH): −0.01%
Desorption (%) ([2]; second cycle, 10% RH): −0.01%
Sorption (%) ([2]; second cycle, 10% RH): −0.01%
Desorption (%) ([2]; second cycle, 20% RH): 0.00%
Sorption (%) ([2]; second cycle, 20% RH): −0.01%
Desorption (%) ([2]; second cycle, 30% RH): 0.00%
Sorption (%) ([2]; second cycle, 30% RH): −0.01%
Desorption (%) ([2]; second cycle, 40% RH): 0.01%
Sorption (%) ([2]; second cycle, 40% RH): 0.00%
Desorption (%) ([2]; second cycle, 50% RH): 0.01%
Sorption (%) ([2]; second cycle, 50% RH): 0.01%
Desorption (%) ([2]; second cycle, 60% RH): 0.02%
Sorption (%) ([2]; second cycle, 60% RH): 0.01%
Desorption (%) ([2]; second cycle, 70% RH): 0.03%
Sorption (%) ([2]; second cycle, 70% RH): 0.02%
Desorption (%) ([2]; second cycle, 80% RH): 0.03%
Sorption (%) ([2]; second cycle, 80% RH): 0.02%
Desorption (%) ([2]; second cycle, 90% RH): 0.03%
Sorption (%) ([2]; second cycle, 90% RH): 0.03%
Moisture Sorption ([2]; at 90% RH, DVS 25° C.): Moisture Sorption of 0.03% at 90% RH
Crystal form after high-pressure treatment (XRPD) [3]: has not changed
XRPD of solid after suspension competition ([4]; 24 hours): Crystal Form C
XRPD of solid after suspension competition ([4]; 48 hours): Crystal Form C
XRPD of solid after suspension competition ([4]; 72 hours): Crystal Form C
XRPD ([4]; 24 hours): Crystal Form A
XRPD ([4]; 48 hours): Crystal Form A
XRPD ([4]; 72 hours): Crystal Form A
Purity ([5]; High Relative Humidity (RH = 90 ± 5%, Open, 25° C.), 5 Days): 99.60%
Purity ([5]; High Relative Humidity (RH = 90 ± 5%, Open, 25° C.), 11 Days): 99.56%
Purity ([5]; High Temperature (60° C., Sealed), 5 Days): 99.26%
Purity ([5]; High Temperature (60° C., Sealed), 11 Days): 99.67%
Purity ([5]; Strong Illumination (Open), 5 Days): 99.67%
Purity ([5]; Strong Illumination (Open), 11 Days): 99.44%
Solid-state stability evaluation ([5]; illumination 4500±500 Lux, 60° C. sealed, 25° C. RH=90±5% open): good physical and chemical properties
Purity ([5]; initial, before stress): 99.70%
Crystal form after simulated granulation (XRPD, DSC) [6]: have not changed
